Measurements as given in patent US8889699B2, “5-fluorouracil derivative” (Delta-Fly Pharma, Inc., priority 2009, dated 2014).
Where two headings read alike, the source gives them in different places.

Biological target: T1, DPD (Rattus norvegicus, UniProt O89000)
T1 construct: the obtained supernatant was used as a DPD enzyme solution or an OPRT enzyme solution; from tissue; host or cells: liver of 8-week old SD rat; 105,000 g supernatant of homogenate
T1 sequence (O89000 1-1025): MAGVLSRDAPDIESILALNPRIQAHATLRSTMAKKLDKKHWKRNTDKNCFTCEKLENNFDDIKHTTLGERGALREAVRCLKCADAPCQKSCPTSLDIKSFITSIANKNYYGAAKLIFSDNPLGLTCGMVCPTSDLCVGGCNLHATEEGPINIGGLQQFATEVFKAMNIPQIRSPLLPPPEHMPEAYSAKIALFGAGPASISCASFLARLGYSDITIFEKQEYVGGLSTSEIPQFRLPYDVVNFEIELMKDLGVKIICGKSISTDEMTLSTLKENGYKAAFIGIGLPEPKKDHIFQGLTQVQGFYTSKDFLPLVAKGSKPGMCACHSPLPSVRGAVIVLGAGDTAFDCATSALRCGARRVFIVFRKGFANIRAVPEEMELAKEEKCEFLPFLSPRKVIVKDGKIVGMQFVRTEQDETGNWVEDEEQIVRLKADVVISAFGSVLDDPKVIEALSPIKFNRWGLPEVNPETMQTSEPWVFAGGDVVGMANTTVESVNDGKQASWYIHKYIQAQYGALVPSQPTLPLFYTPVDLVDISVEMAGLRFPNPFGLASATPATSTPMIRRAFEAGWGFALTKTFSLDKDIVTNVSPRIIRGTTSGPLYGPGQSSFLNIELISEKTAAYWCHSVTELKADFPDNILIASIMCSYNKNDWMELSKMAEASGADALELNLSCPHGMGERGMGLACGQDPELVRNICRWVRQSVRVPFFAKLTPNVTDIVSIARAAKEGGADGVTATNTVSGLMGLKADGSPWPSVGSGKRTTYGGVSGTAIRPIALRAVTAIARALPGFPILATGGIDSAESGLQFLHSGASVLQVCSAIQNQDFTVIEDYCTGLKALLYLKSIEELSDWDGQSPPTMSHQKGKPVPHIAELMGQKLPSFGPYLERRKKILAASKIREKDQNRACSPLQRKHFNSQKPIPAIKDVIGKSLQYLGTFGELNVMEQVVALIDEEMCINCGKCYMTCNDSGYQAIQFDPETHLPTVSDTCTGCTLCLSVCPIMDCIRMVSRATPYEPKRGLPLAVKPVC
Assay: DPD inhibitory action in vitro (enzyme reaction, tritium-labeled 5-FU as substrate)
Assay type: biochemical
Procedure: The resulting product was diluted to concentrations of 1 mM, 100 μM, 10 μM, and 1 μM with a 10 mM potassium phosphate buffer solution (pH 6.0), thereby obtaining Test Liquids 1. The obtained Test Liquids 1 were separately added to the enzyme reaction solution described below to give final concentrations of 200 μM, 20 μM, 2 μM, and 0.2 μM. • (b) Test liquid preparation (2): As a DPD inhibitor, 5-chloro-2,4-dihydroxypyridine (CDHP; gimeracil) was dissolved to a concentration of 10 mM in a 10 mM potassium phosphate buffer solution (pH 6.0). The resulting product was diluted to concentrations of 1 mM, 100 μM, 10 μM, and 1 μM, thereby obtaining Test Liquids 2. The obtained Test Liquids 2 were separately added to the enzyme reaction solution to give final concentrations of 200 μM, 20 μM, 2 μM, and 0.2 μM. • (c) Test liquid preparation (3): As an OPRT inhibitor, citrazinic acid (Citra. A.) was dissolved to a concentration of 10 mM in 20 mM trishydroxyaminomethane-hydrochloric buffer solution (pH 8.0). Thereafter, the resulting product was diluted to concentrations of 1 mM, 100 μM, and 10 μM with a 10 mM potassium phosphate buffer solution, thereby obtaining Test Liquids (3). The obtained Test Liquids 3 were separately added to the enzyme reaction solution to give final concentrations of 200 μM, 20 μM, and 2 μM. • (d) Preparation of enzyme solution: The liver of an 8-week old SD rat was used as a DPD enzyme source, while human tumor cells that had been transplanted into a nude mouse and proliferated therein were used as an OPRT enzyme source. Specifically, immediately after a rat liver or successively-transplanted human tumor cells were extracted, a 50-mM tris-hydrochloric acid buffer solution (pH 8.0) containing 0.25 M saccharose, 5 mM magnesium chloride, and 1 mM dithreitol was added thereto to a concentration of 25% (w/v) and homogenized. Thereafter, ultracentrifugation was performed at 105,000 g for 60 minutes, and the obtained supernatant was used as a DPD enzyme solution or an OPRT enzyme solution. • (e) Enzyme reaction: A DPD enzyme reaction was carried out in accordance with the method of Tatsumi et al. (Gann, 78: 748-755 (1987)) using 5-FU labeled with tritium as a substrate. An OPRT enzyme reaction was carried out in accordance with the method of Shirasaka et al. (Cancer Res., 53: 4004-4009 (1993)) using 5-FU labeled with tritium as a substrate. Then, the activity of a control group (with no test compound) and test compound groups was measured. The percent inhibition of the test compound relative to DPD or OPRT was calculated using the following formula: [1-(the enzyme activity with the test compound/the enzyme activity of the control group)]×100(%).
The resulting product was diluted to concentrations of 1 mM, 100 μM, 10 μM, and 1 μM with a 10 mM potassium phosphate buffer solution (pH 6.0), thereby obtaining Test Liquids 1. The obtained Test Liquids 1 were separately added to the enzyme reaction solution described below to give final concentrations of 200 μM, 20 μM, 2 μM, and 0.2 μM. • (b) Preparation of enzyme solution: The liver of an 8-week old SD rat was used as a DPD enzyme source, while human tumor cells that had been transplanted into a nude mouse and proliferated therein were used as an OPRT enzyme source. Specifically, immediately after a rat liver or successively-transplanted human tumor cells were extracted, a 50-mM tris-hydrochloric acid buffer solution (pH 8.0) containing 0.25 M saccharose, 5 mM magnesium chloride, and 1 mM dithreitol was added thereto to a concentration of 25% (w/v) and homogenized. Thereafter, ultracentrifugation was performed at 105,000 g for 60 minutes, and the obtained supernatant was used as a DPD enzyme solution or an OPRT enzyme solution. • (c) Enzyme reaction: A DPD enzyme reaction was carried out in accordance with the method of Tatsumi et al. (Gann, 78: 748-755 (1987)) using 5-FU labeled with tritium as a substrate. […]

Oc1cc(O)c(Cl)cn1 [CDHP, 5-chloro-2,4-dihydroxypyridine, reference compound]
inhibition at 0.2 µM (0.2 μM, Table 2, read-out: DPD Inhibition (%)): 44.8% | inhibition at 2 µM (2 μM, Table 2, read-out: DPD Inhibition (%)): 85.1% | DPD Inhibitory Activity: Activity (Conc. 0.2 μM, Table 1): 0.597 nmol/mL/min | inhibition at 0.2 µM (Conc. 0.2 μM, Table 1, read-out: DPD Inhibitory Activity: Inhibition): 40.8% | DPD Inhibitory Activity: Activity (Conc. 2 μM, Table 1): 0.195 nmol/mL/min | inhibition at 2 µM (Conc. 2 μM, Table 1, read-out: DPD Inhibitory Activity: Inhibition): 80.7% | DPD Inhibitory Activity: Activity (Conc. 20 μM, Table 1): 0.074 nmol/mL/min | inhibition at 20 µM (Conc. 20 μM, Table 1): 92.7% | DPD Inhibitory Activity: Activity (Conc. 200 μM, Table 1): 0.106 nmol/mL/min | inhibition at 200 µM (Conc. 200 μM, Table 1): 89.5%
